Measurements reported in patent US11541107B2, “Peptides and T cells for use in immunotherapeutic treatment of various cancers” (Immatics Biotechnologies GmbH, priority 2015, dated 2023).

System: HLA-A*24
Experiment: MHC binding assay, UV-ligand exchange with beta2m ELISA, HLA-A*24
Set-up: species or system human
Conditions: binding to HLA-A*24 ranged by peptide exchange yield (UV-ligand exchange, beta2m ELISA)
Text: Candidate peptides for T cell based therapies according to the present invention were further tested for their MHC binding capacity (affinity). The individual peptide-MHC complexes were produced by UV-ligand exchange, where a UV-sensitive peptide is cleaved upon UV-irradiation, and exchanged with the peptide of interest as analyzed. Only peptide candidates that can effectively bind and stabilize the peptide-receptive MHC molecules prevent dissociation of the MHC complexes. To determine the yield of the exchange reaction, an ELISA was performed based on the detection of the light chain (ß2 m) of stabilized MHC complexes. The assay was performed as generally described in Rodenko et al. (Rodenko et al., 2006).
96 well MAXISorp plates (NUNC) were coated over night with 2 ug/ml streptavidin in PBS at room temperature, washed 4× and blocked for 1 h at 37° C. in 2% BSA containing blocking buffer. […] Peptide-MHC monomers of the UV-exchange reaction were diluted 100 fold in blocking buffer. Samples were incubated for 1 h at 37° C., washed four times, incubated with 2 ug/ml HRP conjugated anti-β2 m for 1h at 37° C., washed again and detected with TMB solution that is stopped with […]. Absorption was measured at 450 nm. Candidate peptides that show a high exchange yield (preferably higher than 50%, most preferred higher than 75%) are generally preferred for a generation and production of antibodies or fragments thereof, and/or T cell receptors or fragments thereof, as they show sufficient avidity to the MHC molecules and prevent dissociation of the MHC complexes.

| Peptide exchange | Substance |
| --- | --- |
| +++ (50%-75% = +++) | 205 (VYPVVLNQI; listed as Homo sapiens) [compound 205] |
| ++++ (>=75% = ++++) | 206 (NYLDVATFL; listed as Homo sapiens) [compound 206] |
| +++ (50%-75% = +++) | 207 (LYSDAFKFIVF; listed as Homo sapiens) [compound 207] |
| ++++ (>=75% = ++++) | 208 (TYLEKIDGF; listed as Homo sapiens) [compound 208] |
| ++++ (>=75% = ++++) | 209 (AFIETPIPLF; listed as Homo sapiens) [compound 209] |
| ++++ (>=75% = ++++) | 210 (IYAGVGEFSF; listed as Homo sapiens) [compound 210] |
| ++++ (>=75% = ++++) | 211 (VFKSEGAYF; listed as Homo sapiens) [compound 211] |
| ++ (20%-49% = ++) | 212 (SYAPPSEDLF; listed as Homo sapiens) [compound 212] |
| ++ (20%-49% = ++) | 213 (SYAPPSEDLFL; listed as Homo sapiens) [compound 213] |
| +++ (50%-75% = +++) | 214 (KYLMELTLI; listed as Homo sapiens) [compound 214] |
| ++ (20%-49% = ++) | 215 (SYVASFFLL; listed as Homo sapiens) [compound 215] |
| +++ (50%-75% = +++) | 216 (FYVNVKEQF; listed as Homo sapiens) [compound 216] |
| ++++ (>=75% = ++++) | 217 (IYISNSIYF; listed as Homo sapiens) [compound 217] |
| +++ (50%-75% = +++) | 218 (LYSELNKWSF; listed as Homo sapiens) [compound 218] |
| +++ (50%-75% = +++) | 219 (SYLKAVFNL; listed as Homo sapiens) [compound 219] |
| ++++ (>=75% = ++++) | 220 (SYSEIKDFL; listed as Homo sapiens) [compound 220] |

| Peptide exchange | Substance |
| --- | --- |
| ++++ (>=75% = ++++) | 221 (KYIGNLDLL; listed as Homo sapiens) [compound 221] |
| ++++ (>=75% = ++++) | 223 (TFITQSPLL; listed as Homo sapiens) [compound 223] |
| +++ (50%-75% = +++) | 224 (PYFFANQEF; listed as Homo sapiens) [compound 224] |
| +++ (50%-75% = +++) | 225 (TYTNTLERL; listed as Homo sapiens) [compound 225] |
| ++ (20%-49% = ++) | 226 (MYLKLVQLF; listed as Homo sapiens) [compound 226] |
| +++ (50%-75% = +++) | 227 (IYRFITERF; listed as Homo sapiens) [compound 227] |
| +++ (50%-75% = +++) | 228 (IYQYVADNF; listed as Homo sapiens) [compound 228] |
| +++ (50%-75% = +++) | 229 (IYQFVADSF; listed as Homo sapiens) [compound 229] |
| +++ (50%-75% = +++) | 230 (TYGMVMVTF; listed as Homo sapiens) [compound 230] |
| ++++ (>=75% = ++++) | 231 (AFADVSVKF; listed as Homo sapiens) [compound 231] |
| +++ (50%-75% = +++) | 232 (YYLSDSPLL; listed as Homo sapiens) [compound 232] |
| +++ (50%-75% = +++) | 233 (QYLTAAALHNL; listed as Homo sapiens) [compound 233] |
| +++ (50%-75% = +++) | 234 (SYLPAIWLL; listed as Homo sapiens) [compound 234] |
| +++ (50%-75% = +++) | 235 (VYKDSIYYI; listed as Homo sapiens) [compound 235] |
| +++ (50%-75% = +++) | 236 (VYLPKIPSW; listed as Homo sapiens) [compound 236] |
| +++ (50%-75% = +++) | 237 (KYVGQLAVL; listed as Homo sapiens) [compound 237] |
